Holding throughout (type): physicochemical
A short description of data set [1]: Static stability of amorphous Compound I (ambient conditions; 40° C./75% RH). The protocol: Full characterization was carried out on a 100 mg scale test batch (lyophilised from 100% t-butanol).
Data set [2] in a line: Kinetic solubility of amorphous Compound I. The settings on record: kinetic from dmso stock; stated in embodiment text only.
Data set [3] can be described thus: Solubility screen with crystalline material (Form I). The protocol:
An extensive range of experiments were carried out using either Compound I crystalline Form I or amorphous Compound I as the input material. A set of 32 solvents with diverse properties (including 3 solvent:water mixtures 95:5 v:v) were selected. All solvents were used for the solubility screen but for the subsequent screens a selection of these solvents were used depending on the solubility.
Compound I Form I was weighed into 2 mL vials and treated with increasing amounts of solvent. Solvent was added in 10 or 20 volume portions until the solid dissolved or a maximum volume of 2 mL (80 volumes) had been reached. After each addition of solvent the samples were warmed to 50° C. […] After 3 days of maturation samples were equilibrated to room temperature and small amounts of each sample were filtered through glass frits under vacuum and were analyzed by XRPD. […]
Solutions were stirred at 50° C. for 1 hour then were cooled to 5° C. using a linear cooling rate of 0.1° C./min. […] Observations were made and any solids were analyzed by XRPD as above and solutions were cooled in the freezer for 3 days. Solids were then analyzed by XRPD and samples that remained solutions were left to evaporate slowly through loosened lids at ambient conditions. When solids were produced they were analyzed by XRPD.

≈ marks a conversion by molar mass, not a printed value. Entries after “also recorded” stand apart in the source; their conditions may differ.

On to `CC(C)OC(=O)[C@@H](C)N[P@@](=O)(OC[C@H]1O[C@@H](n2ccc(=O)[nH]c2=O)[C@](C)(Cl)[C@@H]1O)Oc1ccccc1` [Amorphous Compound I], for which the “Static Stability at 40° C./75% RH: time to deliquesce to an oil/gum” value in data set [1] (40° C./75% RH) was “Deliquesces to an oil/gum in <1 hour,”. Besides, the “Static Stability at 40° C./75% RH: solid form” value in data set [1] (40° C./75% RH, 1, 15 and 44 days) is reported as “remains amorphous after 1 day,; also recorded: after 15 days amorphous but hint of a peak at 6.5 °20; also recorded: after 44 days remains amorphous except for peak at 6.5 °20”. In data set [1] (solid form on storage, lyophilised batch), the “Static Stability at ambient conditions” value is given as “Remains amorphous after 22 days”. The molecule also showed a kinetic solubility in data set [2] of approximately 2000 µg/mL (≈ 3.66 mM).

As to `CC(C)OC(=O)[C@@H](C)N[P@@](=O)(OC[C@H]1O[C@@H](n2ccc(=O)[nH]c2=O)[C@](C)(Cl)[C@@H]1O)Oc1ccccc1` [Compound I crystalline Form I], the “solubility in most primary alcohols” value in data set [3] is on record as “highly soluble”.

These data come from patent US20170066795A1, “SOLID PRODRUG FORMS OF 2'-CHLORO-2'-METHYL URIDINE FOR HCV” (IDENIX PHARMACEUTICALS LLC, priority 2014, published 2017).
